Measured values taken from ChEMBL document CHEMBL1287661, “Computational structure-activity relationship analysis of small-molecule agonists for human formyl peptide receptors” (Eur J Med Chem, 2010).
Active and inactive are the calls of the source.

Legend:
[1] = target: T1, N-formyl peptide receptor 2 (Homo sapiens) (UniProt P25090); test: Agonist activity at human FPR2 expressed in RBL-2H3 cells assessed as induction of calcium mobilization; assay type: functional, cell-based
T1 sequence (whole entry): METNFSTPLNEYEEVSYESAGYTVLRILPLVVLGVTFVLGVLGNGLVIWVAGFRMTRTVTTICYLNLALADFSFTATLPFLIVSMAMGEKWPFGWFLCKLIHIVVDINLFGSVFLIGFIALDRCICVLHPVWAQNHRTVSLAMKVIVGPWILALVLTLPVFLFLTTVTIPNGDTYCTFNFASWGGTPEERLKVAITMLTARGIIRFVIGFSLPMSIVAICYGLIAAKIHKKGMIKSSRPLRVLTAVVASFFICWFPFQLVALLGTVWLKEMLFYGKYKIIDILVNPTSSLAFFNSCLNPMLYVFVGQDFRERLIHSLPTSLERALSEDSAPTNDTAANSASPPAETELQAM

[2] = target: T2, fMet-Leu-Phe receptor (Homo sapiens) (UniProt P21462); test: Agonist activity at human FPR1 expressed in RBL-2H3 cells assessed as induction of calcium mobilization; assay type: functional, cell-based
T2 sequence (whole entry): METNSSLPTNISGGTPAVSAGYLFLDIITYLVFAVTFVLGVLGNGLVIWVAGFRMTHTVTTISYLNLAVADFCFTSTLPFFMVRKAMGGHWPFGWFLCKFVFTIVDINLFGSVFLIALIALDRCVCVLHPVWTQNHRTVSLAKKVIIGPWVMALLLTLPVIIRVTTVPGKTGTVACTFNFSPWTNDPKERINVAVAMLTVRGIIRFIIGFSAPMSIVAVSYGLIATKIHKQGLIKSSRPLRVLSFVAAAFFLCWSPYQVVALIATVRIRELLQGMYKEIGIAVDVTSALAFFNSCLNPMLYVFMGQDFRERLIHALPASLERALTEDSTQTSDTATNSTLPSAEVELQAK

Row | SMILES | Activity [1] | Activity [2]
1 | CCc1nc2ccccc2n1[C@@H]1CCN(C(=O)c2nc3cc(OC)ccc3[nH]2)C1 | Active | –
2 | O=C(CN1CCN(c2ccccn2)CC1)Nc1ccc(Cl)cc1 | inactive | inactive
3 | O=C(Cc1ccccc1)N/N=C/C=C/c1ccccc1[N+](=O)[O-] | inactive | inactive
4 | O=C(N/N=C/c1ccc(-c2cccc(C(F)(F)F)c2)o1)c1ccc(F)cc1 | Active | –
5 | O=C(CN1CCN(c2ccccc2)CC1)Nc1ccc(Br)cc1 | Active | –
6 | O=C(NCCc1ccccc1)Nc1ccccc1 | inactive | inactive
7 | COc1ccc2[nH]c(SCC(=O)Nc3ccc(Br)cc3)nc2c1 | – | Active
8 | COc1cccc(Cc2cc(C)nn(CC(=O)Nc3ccc4c(c3)OCO4)c2=O)c1 | – | Active
9 | COc1ccc(CCNC(=O)Nc2ccc(F)cc2)cc1 | Active | –
10 | O=C(CNc1ccccc1)N/N=C/C=C/c1ccccc1[N+](=O)[O-] | Active | –
11 | COc1ccc(CC(=O)N/N=C/C=C/c2ccccc2[N+](=O)[O-])cc1OC | Active | –
12 | O=C(CN1CCN(c2ccccc2)CC1)Nc1ccccc1 | inactive | inactive
13 | COc1cccc(NC(=O)CSc2nc3cc(OC)ccc3[nH]2)c1 | – | Active
14 | O=C(CSc1nc2ccccc2[nH]1)Nc1cccc(Br)c1 | inactive | inactive
15 | COc1cc(/C=N/NC(=O)c2ccc3c(c2)OCO3)ccc1OCc1ccccc1 | – | Active
16 | COc1ccc(NC(=O)CCCCc2cccs2)cc1 | Active | –
17 | O=C(CN1CCN(c2ccccc2)CC1)Nc1ccccc1Br | inactive | inactive
18 | O=C(NNC(=O)c1ccccc1[N+](=O)[O-])c1ccc(Cl)cc1 | Active | –
19 | O=C(NCCc1ccc(Cl)cc1)Nc1ccccc1[N+](=O)[O-] | inactive | inactive
20 | COc1cccc(N2CCN(CC(=O)Nc3ccc(Br)cc3)CC2)c1 | Active | –
21 | Cc1ccc(CCNC(=O)Nc2ccc(F)cc2)cc1 | inactive | inactive
22 | O=C(CN1CCN(c2ccccc2Cl)CC1)Nc1ccccc1 | inactive | inactive

Row | SMILES | Activity [1] | Activity [2]
23 | Cc1ccc(Cl)cc1N1CCN(CC(=O)Nc2ccc(Br)cc2)CC1 | Active | –
24 | O=C(Cc1ccc(Br)cc1)N/N=C/C=C/c1ccccc1[N+](=O)[O-] | Active | –
25 | COc1ccc(NC(=S)NN2C(=O)CSC2c2c[nH]c3ccccc23)cc1 (configuration not stated) | Active | Active
26 | COc1ccc(CCNC(=O)Nc2ccc(Cl)cc2)cc1 | Active | –
27 | O=C(CN1CCN(c2ccc(F)cc2)CC1)Nc1ccc(Br)cc1 | Active | –
28 | COc1ccc2[nH]c(SCC(=O)Nc3ccccc3OC)nc2c1 | Active | Active
29 | CCOc1ccc(C(=O)NN2C(=O)c3ccccc3NC2c2ccc(OC)cc2)cc1 (configuration not stated) | Active | –
30 | CCOc1ccc2[nH]c(SCC(=O)Nc3ccc(OC)cc3)nc2c1 | – | Active
31 | COc1ccccc1/C=C/C=N/NC(=O)Cc1cccs1 | inactive | inactive
32 | COc1ccc(CCNC(=O)Nc2ccc(Br)cc2)cc1 | Active | –
33 | O=C(CSc1nc2ccccc2s1)N/N=C/C=C/c1ccccc1[N+](=O)[O-] | inactive | inactive
34 | CSc1ccc(NC(=O)Nc2c(C)n(C)n(-c3ccccc3)c2=O)cc1 | Active | –
35 | COc1ccc2[nH]c(SCC(=O)Nc3ccccc3)nc2c1 | – | Active
36 | COc1ccc2[nH]c(SCC(=O)Nc3ccc(OC)c(OC)c3)nc2c1 | Active | Active
37 | O=C(CN1CCN(c2cccc(Cl)c2)CC1)Nc1ccc(Br)cc1 | Active | –
38 | CCc1c(NC(=O)Nc2ccc(Cl)cc2)c(=O)n(-c2ccccc2)n1C | Active | –
39 | CC1(C)CC(=O)C(C(c2cccc(OCc3ccccc3)c2)C2C(=O)CC(C)(C)CC2=O)C(=O)C1 | – | Active
40 | Cc1ccc2[nH]c(SCC(=O)Nc3cccc(C(F)(F)F)c3)nc2c1 | inactive | inactive
41 | Cc1cccc(NC(=O)NCCc2ccc(Cl)cc2)c1 | inactive | inactive
42 | O=C(CSc1nc2ccccc2[nH]1)Nc1ccccc1 | inactive | inactive
43 | O=C1NCC(c2ccccc2)C1C(=O)N/N=C/C=C/c1ccc(Br)cc1 (configuration not stated) | inactive | inactive
44 | COc1ccc2[nH]c(SCC(=O)Nc3ccc(Cl)cc3)nc2c1 | Active | Active

Row | SMILES | Activity [1] | Activity [2]
45 | O=C(N/N=C/c1ccc(-c2cccc(Br)c2)o1)c1cccnc1 | Active | –
46 | O=C(CN1CCN(c2ccccc2)CC1)Nc1cccc(Br)c1 | inactive | inactive
47 | COc1ccc(NC(=O)Nc2ccc(C(=O)N3CCCCC3)cc2)cc1 | Active | Active
48 | CSCC[C@H](NC(=O)[C@H](Cc1ccc(O)cc1)NC(=O)[C@H](CCCCN)NC(=O)[C@@H](N)Cc1c[nH]c2ccccc12)C(=O)N[C@H](C(=O)N[C@H](CCSC)C(N)=O)C(C)C | Active | Active
49 | Cc1cccc2[nH]c(SCC(=O)Nc3ccc(Cl)c([N+](=O)[O-])c3)nc12 | inactive | inactive
50 | CC(C)c1c(NC(=O)Nc2ccc(Cl)cc2)c(=O)n(-c2ccccc2)n1C | Active | Active
51 | Cc1c(Cl)cccc1N1CCN(CC(=O)Nc2ccc(Br)cc2)CC1 | Active | –
52 | CCC(Nc1ccc(OC)cc1)C(=O)N/N=C(C)/C=C/c1ccccc1 (configuration not stated) | Active | –
53 | O=C(CN1CCN(c2ccccc2)CC1)Nc1ccc(F)c(Cl)c1 | inactive | inactive
54 | CCCC(C)c1ccc(OCC(=O)N/N=C/c2ccsc2)cc1 (configuration not stated) | Active | Active
55 | CCOc1ccc(NC(=O)CSc2nc3cc(OC)ccc3[nH]2)cc1 | – | Active
56 | COc1ccc2[nH]c(SCC(=O)Nc3ccc([N+](=O)[O-])cc3)nc2c1 | – | Active
57 | Cc1c(NC(=O)Nc2ccc(Br)cc2)c(=O)n(-c2ccccc2)n1C | Active | –
58 | O=C(CSc1nc2ccccc2[nH]1)Nc1ccc([N+](=O)[O-])cc1 | inactive | inactive
59 | O=C(CN1CCN(c2ccc(Cl)cc2)CC1)Nc1ccc(Br)cc1 | Active | –
60 | Cc1ccc(N2CCN(CC(=O)Nc3ccc(Br)cc3)CC2)cc1Cl | Active | –
61 | COc1ccc(CCNC(=O)Nc2ccccc2)cc1 | Active | –
62 | O=C1NCC(c2ccccc2)C1C(=O)N/N=C/C=C/c1ccccc1[N+](=O)[O-] (configuration not stated) | Active | –
63 | COc1ccc(C2Nc3ccccc3C(=O)N2NC(=O)c2ccc([N+](=O)[O-])cc2)cc1 (configuration not stated) | Active | –
64 | COc1ccc(CCNC(=O)Nc2ccc(Cl)cc2Cl)cc1 | inactive | inactive
